Where two headings read alike, the source gives them in different places.
Legend:
[1] = test system: healthy peripheral blood mononuclear cells (PBMC); test: Effect on healthy PBMC (CellTiter-Blue viability); settings: 48 h incubation; one individual; FIG. 8
Method: FIG. 8: Effect of compounds 1 and 22 according to the invention as well as the control drugs fludarabine and cyclophosphamide on the viability of healthy peripheral blood mononuclear cells (PBMC) in suspension culture after 48 h incubation. Data points represent one individual calculated in relation to the control. Viability was measured using the CellTiter Blue assay (Promega, Madison, Wis., USA), and cells incubated in solvent only were used as control.
For quantification, cells were treated with resazurin (7-hydroxy-3H-phenoxazin-3-one 10-oxide) as indicator of cell viability. The method is based on the finding that living cells are able to reduce the non-fluorescent blue dye into the pink colored and highly red fluorescent resorufine. After adding the substrate the cells are incubated for 2 to 4 hours. Then, the solution is analyzed at 560 nm Ex/590 nm Em on a fluorometer. Appropriate cell density for seeding and duration of treatment with the substrate were determined in preliminary experiments.
First, cells were seeded in 96 well plates and then growth medium was added to each well to get a final volume of 80 μl. Compounds to be tested were diluted with medium from a 10 mM stock solution in DMSO to get different concentrations, and 20 μl of these solutions were added to the wells. The final DMSO concentration was 0.5%. All treatments and controls were performed in at least triplicates. Cells were incubated at 37° C. and 5% CO2 for 48 h. Then, 20 μl substrate solution was added to the wells, plates were incubated for 3 hours and analyzed.
The impact of the compounds according to the invention on healthy cells was assessed using peripheral blood mononuclear cells (PBMC). Cell viability was tested using the CellTiter-Blue Cell Viability Assay (Promega, Madison, Wis., USA) as described in Example 7.

[2] = test system: CLL cell lines MEC-1 and MEC-2; test: Annexin V-FITC / propidium iodide staining, apoptosis in CLL cell lines; assay type: cell-based; settings: MEC-1 cells, 500 nM, 48 hours (FIG. 4b); called an outlier, not seen after 24 hours
Method: Apoptosis was detected using propidium iodide/Annexin V FACS staining (Bender MedSystems).
Annexin V binds to phosphatidylserine which is exposed at the cell surface during execution of apoptosis. First, cells were seeded out at a density of 1.5 to 2.5 million cells per well in 12 well plates and then growth medium was added to each well to get a final volume of 2.5 ml. Compounds to be tested were diluted with medium from a 10 mM stock solution in DMSO to get different concentrations and cells were treated with 25 μl of these solutions. The final DMSO concentration was 0.5%. All treatments and controls were performed twice. Cells were incubated at 37° C. and 5% CO2 for 24 h and 48 h. Then, growth medium was removed by centrifugation, the supernatant discarded and 200 μl of an Annexin V solution were added. After 10 minutes in the dark, cells were washed once with Annexin buffer and the solution removed by centrifugation. The supernatant was discarded again and cells were suspended in 200 μl of a propidium iodide solution. Cells were measured by flow cytometry with a total of 10 000 events. Data were analyzed with CellQuest Pro™.
Compounds 1 and 22 were also tested on the CLL cell lines MEC-1 and MEC-2 in comparison with fludarabine and cyclophosphamide, two compounds used in the treatment of hematological malignancies (MEC-1 is a fludarabine-resistant cell line).

HCT116 cell line = test: Cell proliferation assay using crystal violet, HCT116; assay type: cell-based; settings: Homo sapiens, HCT-116, n = 3, 24 h incubation
Method: (§1) For quantification, cells are treated with crystal violet, a dye that stains proteins. After washing away of excess dye, the remaining crystal violet is dissolved in a sodium citrate solution. The solution is analyzed photometrically at 590 nm. The optical density of this solution depends on the concentration of crystal violet and therefore on the amount of cells. […] To reduce effects of evaporation, only the inner 60 wells of 96-well plates (coated with 0.1% gelatine solution for studies with HUVEC) were used for experiments.
(§2) Cells were seeded at a density of 5 000 cells per well in 100 μl growth medium (HUVEC) or 20 000 (HCT116), 15 000 (SW480 and 518A2) or 10 000 (HT29) cells per well in 200 μl growth medium in 55 wells per plate. 5 wells were filled with medium only. Additionally, a 96-well plate with cells in 12 wells and medium in 6 wells was prepared as T0-plate. The next day, additional 98 μl of growth medium were added in every well (only HUVEC).
(§3) Cells were treated with 2 μl of the working solution 24 h after seeding. Final compound concentrations in the well were 10 μM for the first round of screening. The final DMSO concentration was 0.5%. […] After finishing the addition of compounds, the T0-plate was stained with crystal violet for giving the cell density at time point zero. Before staining, the growth medium was poured away. Wells were filled with 50 μl crystal violet solution for 10 min. Then the staining solution was washed away with water. Since crystal violet is environmentally hazardous the waste was collected and disposed in an appropriate manner. After air drying of the plates the crystal violet on the cells was dissolved in 100 μl of sodium citrate solution, and the absorption was measured with a plate reader at 590 nm.
(§4) Mean values were corrected with the absorption of stained medium and the corrected absorption of T0 cells. Cell growth was calculated relative to DMSO control for data comparison.

HUVEC = test: Cell proliferation assay using crystal violet, HUVEC; assay type: cell-based; settings: Homo sapiens, n = 3, 48 h incubation, read-out: IC50 (nM) HUVEC (converted)
Method: as §1, §2, §3, §4

[3] = test system: colon cancer cell line HT29; test: Cell proliferation assay using crystal violet, HT29; assay type: cell-based; settings: Homo sapiens, HT-29, n = 3, 24 h incubation
Method: as §1, §2, §3
Mean values were corrected with the absorption of stained medium and the corrected absorption of T0 cells. Cell growth was calculated relative to DMSO control for data comparison. IC50 values (50% inhibition of cell growth) were determined with GraphPad Prism® (Version 4.03) using nonlinear regression (sigmoidal dose-response with variable slope). […]

[4] = test system: colon cancer cell line SW480; test: Cell proliferation assay using crystal violet, SW480; assay type: cell-based; settings: Homo sapiens, n = 3, 24 h incubation
Method: as §1, §2, §3
(§5) Mean values were corrected with the absorption of stained medium and the corrected absorption of T0 cells. Cell growth was calculated relative to DMSO control for data comparison. IC50 values (50% inhibition of cell growth) were determined with GraphPad Prism® (Version 4.03) using nonlinear regression (sigmoidal dose-response with variable slope).
(§6) Compounds showing an inhibition of proliferation of more than 50% at a concentration of 10 μM were defined as active, and their IC50-values were determined.

melanoma cell line 518A2 [5] = test: Cell proliferation assay using crystal violet, 518A2; assay type: cell-based; settings: Homo sapiens, 518A2; crystal violet assay; n = 3; 48 h incubation
Method: as §1, §2, §3, §5, §6

melanoma cell line 518A2 [6] = settings: stated as comparison, no experiment described; read-out: IC50 value of cisplatin, comparison for melanoma cell line 518A2; cited from earlier work

Structure (SMILES) | IC50 (HCT116 cell line) [nM] | IC50 (HUVEC) [nM] | other results
O=P1(N(CCCl)CCCl)NCCCO1 (stereo not drawn) [cyclophosphamide, reference compound] |  |  | viability of healthy PBMC in suspension culture (toxicity) [1]: did not influence viability; apoptosis induction [2]: 40%
C=Cc1ccccc1/C=C/C=C/C(=O)c1ccccc1OC | 804 | 760 | 
COc1ccccc1C(=O)/C=C/c1ccc(OC)c2ccccc12 | 6850 |  | 
COc1ccccc1/C=C/C=C/C(=O)c1cc(OC)c(O)c(OC)c1 |  |  | IC50 [3]: 5790 nM; IC50 [4]: 2680 nM; IC50 (melanoma cell line 518A2 [5]): 2750 nM
COc1cc(C(=O)/C=C/C=C/c2ccccc2Cl)cc(OC)c1OC |  | 1770 | 
CCOc1ccccc1C(=O)/C=C/c1ccc(OC)c2ccccc12 |  |  | IC50 [4]: > 10000 nM; IC50 (melanoma cell line 518A2 [5]): > 10000 nM
COc1ccccc1/C=C/C=C/C(=O)c1ccc(Cl)c([N+](=O)[O-])c1 |  | 5630 | 
Nc1nc(F)nc2c1ncn2[C@@H]1O[C@H](CO)[C@@H](O)[C@@H]1O [fludarabine, reference compound] |  |  | viability of healthy PBMC in suspension culture (toxicity) [1]: the most toxic of the tested compounds
COc1cc(C(=O)/C=C/C=C/c2ccccc2SC)cc(OC)c1OC |  |  | IC50 [3]: 240 nM; IC50 [4]: 260 nM; IC50 (melanoma cell line 518A2 [5]): 160 nM
N.N.[Cl][Pt][Cl] [cisplatin] |  |  | IC50 (melanoma cell line 518A2 [6]): ~10 µM

Further lines, with some results ahead:

IC50 (HCT116 cell line) [nM] | Structure (SMILES) | IC50 (HUVEC) [nM] | other results
> 10000 | COc1cccc(/C=C/C=C/C(=O)c2ccccc2OC)c1 | 8810 | 
> 10000 | COc1ccc(C(=O)/C=C/c2ccc(OC)c3ccccc23)cc1OC | > 10000 | 
4340 | COc1cc(C(=O)/C=C/C=C/c2ccccc2)cc(OC)c1OC |  | 
4500 | COc1cccc(/C=C/C=C/C(=O)c2cc(OC)c(OC)c(OC)c2)c1 | 3210 | 

From patent US20130123367A1, “VINYLOGOUS CHALCONE DERIVATIVES AND THEIR MEDICAL USE” (MEDIZINISCHE UNIVERSITAT WIEN, priority 2010, published 2013)
